Legend:
[1] = tested on: adult worker honeybees (Apis mellifera) or adult worker bumblebees (Bombus terrestris); experiment: Two-choice preference assay, diet with or without isofucosterol; assay type: in vivo; details: choice of diet with or without isofucosterol, 5 days, FIG. 1
Description: One treatment diet contained the isofucosterol and the other contained no sterol. Newly emerged bees were removed from the brood frame and cohorts of 30 bees per replicate were housed in plastic rearing cages. In all experiments, 10 cohorts of ˜30 bees each were used for each treatment group. […] Consumption of each diet was measured every 24 h for 5 days. Preference index was calculated as (amount of treatment consumed−amount of control consumed)/(total amount of food consumed). In Example 1, cohorts of bees were given a choice of diet with or without isofucosterol.

Honeybees [2] = experiment: Brood production in APIDEA nuc colonies; assay type: in vivo, honeybee; details: pollen-free diet with isofucosterol vs isofucosterol-free diet, increasing concentration
Description: Honeybees: Fully functional insulated styrofoam APIDEA nucs comprised 5 mini frames populated with adult workers and 1 mated laying queen bee were populated with 300-400 ml of young adult workers (˜N<1,000 bees of mixed ages).
Each treatment was tested with 3-6 colonies; each colony was fed with a 60-100 g patty (solid diet) on the top feeder fitted with a mesh floor. Diet was fed on the first day and again on day 6; the quantity consumed was measured on day 6 and day 15. If no larvae or eggs/queen are observed by day 6 then the experiment is terminated. The number of capped brood cells was counted on day 15. The number of bee seams was estimated during each inspection. Sugar syrup (34%) and water was provided in feeders inside the tent to prevent carbohydrate starvation and to stimulate foraging activity.
In Example 3, bees were fed with a diet containing 10-18% protein, 6% fat, 1% vitamins/minerals and >75% carbohydrates.
As the concentration of isofucosterol increased, the amount of brood produced in each colony increased (N>3 colonies/treatment). The pupae, and the number of new adults was counted over the entire 10-week period.

Honeybees [3] = experiment: Long term Apidea experiment with bees fed a multiplicity of sterols; assay type: in vivo, honeybee; details: diet with isofucosterol and multiplicity of sterols; cycles of 21 days
Description: Honeybees: Fully functional insulated styrofoam Apidea™ nucs comprised 3-5 mini frames populated with adult workers and 1 mated laying queen bee were populated with 300-400 ml of young adult workers (˜N<1,000 bees of mixed ages).
Each treatment was tested with 3-6 colonies, each colony was fed ad libitum with the solid diet on the top feeder fitted with a mesh floor, and the quantity consumed was assessed at every feeding. The number of capped brood cells was assessed every 12 days. The number of bee seams was recorded during each inspection. If the colony reaches maximal size for the Apidea box, a super is added. Sugar syrup (34%) and water was provided in feeders inside the tent to prevent carbohydrate starvation and to stimulate foraging activity.
In Example 4A, bees were fed with a diet containing 15-30% protein, 4-12% fat, 1% vitamins/minerals and >40% carbohydrates (Diet 1). […]
FIG. 4—results of experiment 4A: Mean area of sealed brood (cm2) assessed every 12 days over a 15-week period. […]

adult worker honeybees = experiment: Survival of cohorts of bees on diets containing isofucosterol; assay type: in vivo, honeybee; details: pollen-free diet with isofucosterol vs isofucosterol-free diet
Description: Newly emerged adult worker honeybees fed with a diet treatment and ad libitum access to water. The treatment diet contained the isofucosterol. Newly emerged bees were removed from the brood frame and cohorts of 30 bees per replicate were housed in plastic rearing cages. In all experiments, 10 cohorts of ˜30 bees each were used for each treatment group. In all diet's carbohydrate was maintained at 60% using sucrose and fat was maintained at 8%. Consumption of each diet was measured every day over the course of the experiment. The number of bees alive in the box was counted each day for 14 days.
Example 2 represents the survival of cohorts of bees confined to feed on diets containing specific concentrations of isofucosterol (0%, 0.5% and 1% weight of diet), as shown in FIG. 2.

Black soldier flies = experiment: Black soldier fly feeding experiments; assay type: in vivo, Hermetia illucens
Description: Adult survival and number of egg masses laid from a population fed with a pollen substitute diet (as specified in US2019/0090507 to Apix Biosciences) was measured daily using the methods of rearing described in Thinn and Kainoh 2022. JARQ 56 (2), 211-217 (2022). […] Black soldier fly (BSF) larvae were fed with a diet containing 22% protein, 4% fat as described in Hogsette 1992. J. Econ. Entomol. 85(6): 2291-2294 until ecclosion. Sterols were sourced as pure compounds added directly to diet to a total quantity of 0.1%. […] J. Entomol. 118: 297-306, 2021. […] Sterols were added to diet. Measurement of sterols in tissues was performed after saponification of BSF tissues using GC-MS as described in Boukid et al. 2022. Insects 12, 672.

## C/C=C(/CC[C@@H](C)[C@H]1CC[C@H]2[C@@H]3CC=C4C[C@@H](O)CC[C@]4(C)[C@H]3CC[C@]12C)C(C)C [isofucosterol, Isofucosterol]
[1]
  isofucosterol concentration in the diet that bees preferred to consume: at least 0.05%
Honeybees [2]
  bee brood production: increased
Honeybees [2]; listed as Isofucosterol
  bee brood production: increases
Honeybees [3]
  brood production / brood development supported: more than 4 cycles
Adult worker honeybees
  survival of worker bees: increases
Black soldier flies; cultivated Black Soldier Fly or beetle adults fed diet containing isofucosterol
  egg laying and egg hatching performance and adult longevity: improves
Black soldier flies; isofucosterol delivered through a pollen-free diet
  performance of adult and larval BSF: increases the performance

Source: patent US20240315283A1, “ISOFUCOSTEROL A KEY NUTRIENT FOR PHYTOSTEROL EATING ANIMALS SUCH AS POLLEN EATING AND ALGAE-EATING AND PLANKTON EATING ORGANISMS” (APIX BIOSCIENCES, priority 2021, published 2024)
